From patent US10532985B2, “Heterocycle and carbocycle derivatives having TRKA inhibitory activity” (Shionogi & Co., Ltd., priority 2014, dated 2020) come the findings set out here.

In the first assay the target is T1, human TrkA (Homo sapiens, UniProt P04629).
T1 construct: purchased Lifetechnologies PV3144
T1 sequence (P04629 33-796): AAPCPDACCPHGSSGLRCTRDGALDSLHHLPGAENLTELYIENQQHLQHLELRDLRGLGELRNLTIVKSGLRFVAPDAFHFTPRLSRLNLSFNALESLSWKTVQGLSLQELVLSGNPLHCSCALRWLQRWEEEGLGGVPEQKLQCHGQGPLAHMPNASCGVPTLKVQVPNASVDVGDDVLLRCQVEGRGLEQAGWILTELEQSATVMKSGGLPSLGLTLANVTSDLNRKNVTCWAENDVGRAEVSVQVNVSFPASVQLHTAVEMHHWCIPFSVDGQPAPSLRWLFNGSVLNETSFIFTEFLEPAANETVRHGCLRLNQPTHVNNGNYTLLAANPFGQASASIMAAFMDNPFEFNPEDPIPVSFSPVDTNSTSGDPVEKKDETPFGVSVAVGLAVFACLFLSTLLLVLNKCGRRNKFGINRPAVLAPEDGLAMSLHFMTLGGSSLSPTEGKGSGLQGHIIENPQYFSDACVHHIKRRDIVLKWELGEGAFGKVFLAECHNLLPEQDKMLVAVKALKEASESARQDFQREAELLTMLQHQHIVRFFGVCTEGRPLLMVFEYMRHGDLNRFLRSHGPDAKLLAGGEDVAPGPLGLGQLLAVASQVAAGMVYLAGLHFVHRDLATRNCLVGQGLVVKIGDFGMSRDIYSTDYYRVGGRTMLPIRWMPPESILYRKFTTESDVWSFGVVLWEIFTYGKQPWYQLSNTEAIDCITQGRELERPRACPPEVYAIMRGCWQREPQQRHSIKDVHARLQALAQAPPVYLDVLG
Nature of the assay: Test Example 2: Human TrkA Inhibition Assay. Conditions: Test Example 2; human TrkA 2.5 nmol/L, ATP 500 μmol/L, 90 min at room temperature; read-out: TrkA inhibitory activity IC50. It is filed as biochemical. The procedure: After the incubation for 90 min at room temperature, ten μL of termination buffer (100 mmol/L HEPES, 40 mmol/L ethylenediaminetetraacetic acid (EDTA), 10 mmol/L magnesium chloride, 0.003 vol % Brij-35, 0.004 vol % Tween20, 1 mmol/L DTT and 0.16 vol % Coating Reagent 3) was added in each well to stop the enzyme reaction. Fluorescent intensities (FI) of phosphorylated and non-phosphorylated fluorescent substrates were measured by LabChip EZReader II (Caliper LifeSciences, Inc.) and conversion ratio (CR) was calculated by the following formula-1. The CR in the well applied with DMSO alone was used as a negative control and the CR in the well without applying TrkA was used as a positive control. The inhibitory effect of each compound on TrkA phosphorylation was calculated by the following formula-2. CR (%)=(FI of phosphorylated substrate/(FI of phosphorylated substrate+FI of non-phosphorylated substrate))×100 (Formula-1) Inhibitory effect on TrkA phosphorylation (%)=(1−(CR in compound treated well−CR in positive control)/(CR in negative control−CR in positive control))×100. (Formula-2)
Take `COCC(Cn1cccn1)N1C[C@@H](NC(=O)Nc2c(C)c(-c3cnn(C)c3)nn2-c2ccccc2)[C@H](c2ccc(F)c(F)c2)C1` (stereo partly drawn) [Compound I-100]: the IC50 amounted to 34 nM.
As to `Cc1c(-c2cnn(C)c2)nn(-c2ccccc2)c1NC(=O)N[C@@H]1CC(=O)C[C@H]1c1ccccc1` (racemic) [Compound I-161], the IC50 is 4200 nM.
Turning to `COCCN1C[C@@H](NC(=NO)Nc2c(C)c(-c3cnn(C)c3)nn2-c2ccccc2)[C@H](c2ccccc2)C1` [Compound I-129], the IC50 stood at 440 nM.
Still for that read-out and setting: the figure for `COCCN1C[C@@H](NC(=C[N+](=O)[O-])Nc2c(C)c(-c3cnn(C)c3)nn2-c2ccccc2)[C@H](c2ccccc2)C1` [Compound I-146] is 1800 nM.

Still in this assay, the particulars now being: human TrkA inhibition, Test Example 2; class symbols A/B/C; read-out: IC50_nM.
As for `COCCN1C[C@@H](NC(=O)Nc2c(C)c(OCC(C)(C)O)nn2-c2ccccc2)[C@H](C2CCC(F)(F)CC2)C1` (racemic) [Compound I-34], the IC50 is over 1000 nM.
Regarding `COCCN1C[C@@H](NC(=O)Nc2c(C)c(-c3cnn(C)c3)nn2-c2ccccc2)[C@H](c2cc3ccccc3o2)C1` (racemic) [Compound I-134], the IC50 was in the range of 100 to 1000 nM.
With `COCCN1C[C@@H](NC(=O)N(C)c2c(C)c(-c3cnn(C)c3)nn2-c2ccccc2)[C@H](c2ccc(F)c(F)c2)C1` [Compound I-32], the IC50 is over 1000 nM.
In the case of `COCC(CC(=O)OC)N1C[C@@H](NC(=O)Nc2c(C)c(-c3cnn(C)c3)nn2-c2ccccc2)[C@H](c2ccc(F)c(F)c2)C1` (stereo partly drawn) [Compound I-117], the IC50 is 100 to 1000 nM.
Take `COCCN1C[C@@H](NC(=O)Nc2c(C)c(-c3cnn(C)c3)nn2-c2ccccc2)[C@H](c2ccc3c(c2)NCCO3)C1` (racemic) [Compound I-162]: the IC50 is over 1000 nM.
`Cc1c(-c2cnn(C)c2)nn(-c2ccccc2)c1NC(=O)N[C@@H]1CN(Cc2nccs2)C[C@H]1c1ccc(F)c(F)c1` [Compound I-97]: the IC50 was under 100 nM.
Turning to `COCCN1C[C@@H](NC(=O)Nc2c(C)c(-c3cnn(C)c3)nn2-c2ccccc2)[C@H](c2cccc(-c3ccccc3C#N)c2)C1` (racemic) [Compound I-55], the IC50 fell in the range of 100 to 1000 nM.
Regarding `COCC(CN1CCOCC1)N1C[C@@H](NC(=O)Nc2c(C)c(-c3cnn(C)c3)nn2-c2ccccc2)[C@H](c2ccc(F)c(F)c2)C1` (stereo partly drawn) [Compound I-158], the IC50 is over 1000 nM.
Take `Cc1c(-c2cnn(C)c2)nn(-c2ccccc2)c1NC(=O)N[C@@H]1CN(c2nn[nH]n2)C[C@H]1c1ccc(F)c(F)c1` [Compound I-148]: the IC50 was over 1000 nM.
Regarding `Cc1c(-c2cnn(C)c2)nn(-c2ccccc2)c1NC(=O)N[C@@H]1CN(C(C)c2ccco2)C[C@H]1c1ccc(F)c(F)c1` (stereo partly drawn) [Compound I-101], the IC50 is under 100 nM.
Regarding `COCCN1C[C@@H](NC(=O)Nc2c(C)c(-c3cnn(C)c3)nn2-c2ccccc2)[C@@]2(CCc3ccccc32)C1` (racemic) [Compound I-7], the IC50 was over 1000 nM.
The same measure, in the same setting: the figure for `COCCN1[C@@H]2CCC[C@H]1[C@@H](c1ccc(F)c(F)c1)[C@@H]2NC(=O)Nc1c(C)c(-c2cnn(C)c2)nn1-c1ccccc1` (racemic) [Compound I-12] is over 1000 nM; for `COCCC1C[C@H](NC(=O)Nc2c(C)c(-c3cnn(C)c3)nn2-c2ccccc2)[C@@H](c2ccccc2)C1` (stereo partly drawn) [Compound I-123] it is 100 to 1000 nM; for `Cc1c(-c2cnn(C)c2)nn(-c2ccccc2)c1NC(=O)N[C@@H]1CN(C2CCC2)C[C@H]1c1ccc(F)c(F)c1` [Compound I-125] it is 100 to 1000 nM.
Turning to `Cc1c(-c2cnn(C)c2)nn(-c2ccccc2)c1NC(=O)N[C@@H]1CN(Cc2ccoc2)C[C@H]1c1ccc(F)c(F)c1` [Compound I-118], the IC50 is 100 to 1000 nM.
The same measure, in the same setting: the figure for `COCCN1C[C@@H](NC(=O)Nc2c(C)c(-c3cnn(C)c3)nn2-c2ccccc2)[C@H](c2cccc(-c3ccoc3)c2)C1` (racemic) [Compound I-51] is under 100 nM; for `COCCC(=O)N1C[C@@H](NC(=O)Nc2c(C)c(-c3cnn(C)c3)nn2-c2ccccc2)[C@H](c2ccc(F)c(F)c2)C1` [Compound I-27] it is over 1000 nM.
On to `Cc1c(-c2cnn(C)c2)nn(-c2ccccc2)c1NC(=O)N[C@@H]1CN(C2CC(F)(F)C2)C[C@H]1c1ccc(F)c(F)c1` [Compound I-38], for which the IC50 was over 1000 nM.
Turning to `C=C1C[C@@H](NC(=O)Nc2c(C)c(-c3cnn(C)c3)nn2-c2ccccc2)[C@H](c2ccc(F)c(F)c2)C1` (racemic) [Compound I-135], the IC50 lay in the range of 100 to 1000 nM.
Consider `Cc1c(-c2cnn(C)c2)nn(-c2ccccc2)c1NC(=O)N[C@@H]1C[C@@H](C)N[C@H]1c1ccc(F)c(F)c1` (racemic) [Compound I-77], for which the IC50 was over 1000 nM.
`Cc1c(-c2cnn(C)c2)nn(-c2ccccc2)c1NC(=O)N[C@@H]1CN(CC2CC2)C[C@H]1c1ccc(F)c(F)c1` [Compound I-66]: the IC50 is 100 to 1000 nM.
Turning to `Cc1c(-c2cnn(C)c2)nn(-c2ccccc2)c1NC(=O)N[C@@H]1CC(C)C[C@H]1c1ccccc1` (stereo partly drawn) [Compound I-36], the IC50 was under 100 nM.
Turning to `COCC(CNC(=O)OC)N1C[C@@H](NC(=O)Nc2c(C)c(-c3cnn(C)c3)nn2-c2ccccc2)[C@H](c2ccc(F)c(F)c2)C1` (stereo partly drawn) [Compound I-139], the IC50 is 100 to 1000 nM.
Take `COCOC1C[C@@H](NC(=O)Nc2c(C)c(-c3cnn(C)c3)nn2-c2ccccc2)[C@H](c2ccccc2)C1` (relative stereo) [Compound I-121]: the IC50 was 100 to 1000 nM.
With `COCCN1C[C@@H](NC(=O)Nc2c(C)c(-c3cnn(C)c3)nn2-c2ccccc2)[C@H](C2CCCCC2)C1` (racemic) [Compound I-9], the IC50 lay within 100 to 1000 nM.
Turning to `COCC(CN1CCC1)N1C[C@@H](NC(=O)Nc2c(C)c(-c3cnn(C)c3)nn2-c2ccccc2)[C@H](c2ccc(F)c(F)c2)C1` (stereo partly drawn) [Compound I-119], the IC50 fell in the range of 100 to 1000 nM.
Turning to `COCCN1C[C@@H](NC(=O)Nc2c(C)c(-c3cnn(C)c3)nn2-c2ccccc2)[C@H](c2cccc(-c3cncnc3)c2)C1` (racemic) [Compound I-59], the IC50 was over 1000 nM.
For `CNC(=O)C(COC)N1C[C@@H](NC(=O)Nc2c(C)c(-c3cnn(C)c3)nn2-c2ccccc2)[C@H](c2ccc(F)c(F)c2)C1` (stereo partly drawn) [Compound I-137], the IC50 fell in the range of 100 to 1000 nM.
The same measure, in the same setting: the figure for `COCC(CNC(=N)N)N1C[C@@H](NC(=O)Nc2c(C)c(-c3cnn(C)c3)nn2-c2ccccc2)[C@H](c2ccc(F)c(F)c2)C1` (stereo partly drawn) [Compound I-145] is over 1000 nM.
Regarding `COCC(C[n+]1ccccc1)N1C[C@@H](NC(=O)Nc2c(C)c(-c3cnn(C)c3)nn2-c2ccccc2)[C@H](c2ccc(F)c(F)c2)C1` (stereo partly drawn) [Compound I-110], the IC50 is under 100 nM.
For `COCCN1C[C@@H](NC(=O)Nc2c(C)c(-c3cnn(C)c3)nn2-c2ccccc2)[C@H](c2ccc3nccn3c2)C1` (racemic) [Compound I-165], the IC50 was over 1000 nM.
On the same count and under the same terms, the figure for `Cc1c(-c2cnn(C)c2)nn(-c2ccccc2)c1NC(=O)N[C@@H]1CN(CCOc2ccccc2)C[C@H]1c1ccc(F)c(F)c1` [Compound I-23] is 100 to 1000 nM; for `Cc1c(-c2cnn(C)c2)nn(-c2ccccc2)c1NC(=O)N[C@@H]1CN(CCc2ccccc2)C[C@H]1c1ccc(F)c(F)c1` [Compound I-62] it is over 1000 nM; for `COC(=O)[C@@H]1C[C@@H](NC(=O)Nc2c(C)c(-c3cnn(C)c3)nn2-c2ccccc2)[C@H](c2ccc(F)c(F)c2)N1` (racemic) [Compound I-47] it is over 1000 nM.
As to `COCCN1C[C@@H](NC(=O)Nc2c(C)c(-c3cnn(C)c3)nn2-c2ccccc2)[C@H](C2CCC(F)(F)CC2)C1` (racemic) [Compound I-33], the IC50 fell in the range of 100 to 1000 nM.
